Where two headings read alike, the source gives them in different places.
Experiments:
[1] = Metabolic stability in monkey whole blood; assay type: in vitro ADME, cynomolgus monkey; conditions: monkey, blood
Protocol: Metabolic stability in blood and liver microsomes: Fosmetpantotenate or its individual diastereomers (5 μM, n = 2, 37°C) were incubated in mouse, rat, cynomolgus monkey, and human whole blood. […] Incubations of fosmetpantotenate or its individual diastereomers (1 μM, n = 2, 37°C) in pooled liver microsomes (0.25 mg protein/mL in 0.1 M phosphate buffer pH 7.4) were initiated with the addition of nicotinamide adenine dinucleotide phosphate (NADPH; 1 mM). Aliquots (100 μL) were obtained at 0, 5, 10, 20, and 40 min and added to 150 μL of 0.1% formic acid in acetonitrile-containing carbamazepine (0.5 μM) as an analytical internal standard, centrifuged, and the supernatants analyzed by LC-MS/MS.
(§1) Bioanalysis for determinations of analyte stability: Samples were analyzed using a benchtop tandem quadrupole detector (TQD) mass spectrometer (Waters Ltd, Centennial Park, Hertfordshire). […] Suitable retention and peak shape with separation of the 2 diastereomers were obtained. The chromatography column was a Phenomenex-Kinetex XB C18 (2.10 x 50 mm; 2.6 μm), with a 0.7 mL/min flow rate and a 2 μL injection volume. […] The gradient was initiated with 20% B and increased linearly, reaching 40% B at 0.6 min, followed by 50% B at 0.8 min and by 95% B at 0.9 min. Conditions were kept isocratic through 1.2 min, returned to starting conditions (20% B) at 1.25 min, and maintained at 20% B through 1.5 min before the next injection. Since fosmetpantotenate is a mixture of diastereomers which are resolved chromatographically, the fosmetpantotenate MRM area corresponds to the sum of the MRM areas of the individual diastereomers.
(§2) The percent of compound remaining was determined from the MRM area response in each sample relative to that in the T = 0 samples (normalized for internal standard). Natural log plots of the percent compound remaining over time were used to determine the t½ of compound disappearance using the relationship t½ = -0.693/λ, where λ is the slope of the natural logarithm of the percent compound remaining vs time curve.

[2] = system: porcine brain endothelial cell (PBEC) co-culture model
Protocol: (§4) Permeability studies were performed after 2 days of co-culture with rat astrocytes. […] In each filter used for transport, a paracellular marker was included as an internal control to monitor the integrity of the cell monolayer. The day of the experiment, culture medium was removed and cells on Transwell inserts were pre-incubated for 30 min with Hank's Balanced Salt Solution (HBSS) containing 20 mM Hepes pH 7.4 and 0.1% bovine serum albumin (BSA). […] Aliquots from the basal compartment were taken after 1 h; fluorescence was measured using a fluorescence detector. The permeability coefficient of the total system was calculated as follows: P[cm/s]=Vd×ΔMr/A×Md×Δt Where:
(§5) To correct for the contribution of the porous polycarbonate membrane of the filter in the absence of cells, the permeability was also determined for the cell-free system. Contribution of the endothelial cell monolayer to the permeability of the cell and filter system was determined by the following equation: 1/Pe=1/Pt-1/Pf Where the total permeability of the system is denoted as Pt, the cell-free filter as Pf, and the endothelial cell layer alone as Pe. The total resistance of the system towards passage of a substance is composed of 2 resistances in series: that of the cell monolayer and that of the filter; permeability is estimated as 1/resistance [27]. […] Mass balance was determined based on the amount of compound recovered in the donor and receiver chamber at the end of the assay relative to the amount added to the donor chamber at time 0.

[3] = Metabolic stability in mouse whole blood; assay type: in vitro ADME; conditions: mouse, blood
Protocol: (§3) Metabolic stability in blood and liver microsomes: Fosmetpantotenate or its individual diastereomers (5 μM, n = 2, 37°C) were incubated in mouse, rat, cynomolgus monkey, and human whole blood. Samples (50 μL) were taken at 0, 5, 15, 30, and 60 min. Incubations of fosmetpantotenate or its individual diastereomers (1 μM, n = 2, 37°C) in pooled liver microsomes (0.25 mg protein/mL in 0.1 M phosphate buffer pH 7.4) were initiated with the addition of nicotinamide adenine dinucleotide phosphate (NADPH; 1 mM). Aliquots (100 μL) were obtained at 0, 5, 10, 20, and 40 min and added to 150 μL of 0.1% formic acid in acetonitrile-containing carbamazepine (0.5 μM) as an analytical internal standard, centrifuged, and the supernatants analyzed by LC-MS/MS.
as §1, §2

[4] = Metabolic stability in rat whole blood; assay type: in vitro ADME; conditions: rat, blood
Protocol: as §3, §1, §2

[5] = Metabolic stability in human whole blood; assay type: in vitro ADME; conditions: human, blood
Protocol: as §3, §1, §2

[6] = Stability in simulated gastric fluid; assay type: in vitro ADME; conditions: simulated gi fluid, pH 1.2
Protocol: Stability in simulated gastric fluid: A stock solution of fosmetpantotenate or its individual diastereomers was prepared in 0.1% formic acid in methanol. Simulated gastric fluid, pH 1.2, was prepared with 2 g/L sodium chloride, 3.2 g/L of pepsin, and 0.7% (v/v) HCl. Gastric buffer, pH 1.2, was prepared containing 2 g/L sodium chloride and 0.7% (v/v) HCl. An appropriate aliquot of fosmetpantotenate or individual diastereomers to yield an initial concentration of 10 μM was added to both fluids, and samples were mixed at ~25°C on an orbital shaker. Aliquots (50 μL) were taken at 0, 2, and 4 h; added to 150 μL dimethyl sulfoxide (DMSO) containing an analytical internal standard; vortexed; and analyzed immediately by LC-MS/MS.
as §1, §2

[7] = Microdialysis (brain striatal dialysate) in C57Bl6 mice; conditions: striatal dialysate; oral dose at 700 mg/kg; all samples; 700 mg/kg
Protocol: (§6) Mice were anesthetized using isoflurane (2%, 800 mL/min O2).
(§7) For oral dosing experiments, MetaQuant microdialysis probes (regenerated cellulose membrane, BrainLink, the Netherlands) were inserted into the striatum (3 mm exposed surface). Coordinates for the tips of the probes for mice were anterior-posterior (AP) = +0.8 mm from bregma, lateral (L) = -1.7 mm from midline, and ventral (V) = -4.0 mm from dura, the toothbar set at 0 mm.
(§8) Microdialysis animal dosing and sample collection: Adult non-fasted male C57Bl6 mice (20–29 g; Harlan Laboratories, Livermore, CA), and Macaca fascicularis (4–9 kg, 3–6 yr old) were used for the experiments. For oral dosing, fosmetpantotenate was formulated as a solution in 20% hydroxypropyl-beta-cyclodextrin in 50 mM citrate buffer in water pH 5.0 and administered using a dose volume of 10 mL/kg. Mice (N = 6 serially sampled) received fosmetpantotenate as a single oral dose at 700 mg/kg and monkeys received a single oral dose at either 100 mg/kg (N = 4 serially sampled) or 300 mg/kg (N = 2 serially sampled).
(§9) Microdialysis: On the morning of the microdialysis experiment, a MetaQuant probe was inserted into the guide shaft targeting the head of the caudate nucleus and perfused at a rate of 0.15 μL/min aCSF containing 0.2% (w/v) BSA, with a carrier flow of 0.8 μL/min of ultrapure water.
(§10) A single 30 min pre-dose basal dialysate sample was collected from mice over -0.5 to 0 h, and three 30 min basal samples from monkeys over -1.5 to 0 h. Fosmetpantotenate was administered at t = 0, and 30 min dialysate samples were collected for an additional 4 h for mice and 3 h for monkeys.
(§11) Sample preparation for mouse dialysate samples: Concentrations of fosmetpantotenate, PA, and PPA in mouse dialysate were determined by Nextcea, Inc, Woburn, MA, using LC-MS/MS. Standard curves and QC samples containing fosmetpantotenate (D1 and D2) and the surrogate analytes for PA and PPA (^15N/^13C3-PA and ^15N/^13C3-PPA) were prepared fresh in 0.1% formic acid in water. Frozen study mouse dialysate samples were thawed in ice/water bath. Standards, QC samples, and thawed study dialysate samples (20 μL) were mixed with 20 μL 0.1% formic acid in water containing internal standard (50 ng/mL of ^15N/^13C3-fosmetpantotenate) and analyzed by LC-MS/MS.
(§12) LC-MS/MS analysis for mouse dialysate samples: Concentrations of fosmetpantotenate, PA, and PPA in dialysate from mice were determined by using LC-MS/MS conditions described for blood PK analysis by Nextcea, except dialysate samples were analyzed using an ACIEX API 5000 and flow rate was increased to 0.6 mL/min.
(§13) Quantitation of in vivo samples: Peak areas were integrated using Analyst software (AB Sciex, Concord, Ontario, Canada). Calibration curves for all blood samples from mouse and rat PK studies and mouse dialysate samples were prepared by plotting the analyte to internal standard (^15N/^13C3-fosmetpantotenate) peak area ratio vs concentration.

in vivo [8] = conditions: cynomolgus monkey, po, 300 mg/kg
Protocol: The whole blood samples (0.5 mL) were collected into syringes that were prefilled with 2.5 mL of ice-cold 0.1% formic acid in acetonitrile. The volume ratio of the whole blood to 0.1% formic acid in acetonitrile was 1/5 (v/v). Samples were frozen (-70°C) until analyzed by LC-MS/MS.
Standard curves and quality control (QC) samples were prepared fresh on the day of analysis by serial dilution of the standard mixture in quenched whole blood (1 part of blood to 5 parts of 0.1% formic acid in acetonitrile) and centrifuged. […] The frozen study samples were thawed in an ice/water bath and centrifuged. Supernatant (50 μL) from standards, QC samples, and study samples was transferred to a 96-well plate and dried completely under nitrogen. The dried residues were reconstituted with 100 μL of 0.1% formic acid in water containing internal standard (5 ng/mL of ^15N/^13C3-RE-024-02) and analyzed by LC-MS/MS.
LC-MS/MS analysis for blood pharmacokinetic samples: Samples were analyzed using an Agilent 1100 binary pump (Agilent Technologies, Santa Clara, CA, USA), connected to an AB Sciex API 6500 mass spectrometer (SCIEX, Framingham, MA, USA). An electrospray ionization source was used, scanning in the positive mode. […] The chromatography column was a Varian Metasil AQ 120–5 C18 column, 5 μm, 50 x 2.00 mm (Part No. A0530050X020) at ambient temperature, with a 0.5 mL/min flow rate and a 20 μL injection volume. Mobile phase (A) consisted of 0.1% formic acid in water; while mobile phase (B) consisted of 0.1% formic acid in acetonitrile:water (9:1, v/v).
Quantitation of in vivo samples: Peak areas were integrated using Analyst software (AB Sciex, Concord, Ontario, Canada). […] Calibration standards (at a minimum 7 per curve) were fit by linear regression with (1/x^2) weighting. QC samples were used (triplicate) at 3 concentrations for all tandem mass spectrometry (MS/MS) runs.
Pharmacokinetic calculations: PK analysis was performed using Phoenix WinNonlin®, Build 6.3.0.395 (Certara, Princeton, NJ, USA) using a non-compartmental model (PO dose = model 200 for extravascular dosing). […] Post-dose concentrations below the limit of quantitation (BLQ) were omitted from calculation.

in vivo [9] = conditions: male, CD-1, mouse, po
[10] = Microdialysis (striatal dialysate and blood) in cynomolgus monkeys; assay type: in vivo, cynomolgus monkey; conditions: cynomolgus monkey, in vivo, po
Protocol: Monkeys were sedated by intramuscular (i.m.) ketamine administration and cannulated for intravenous (i.v.) administration of propofol infusion (initiated 15–30 min after ketamine administration). Subsequently, the animals were placed in an magnetic resonance imaging (MRI)-compatible stereotaxic frame (Kopf Model 1430), and T1 and T2 weighted scans (for up to 1 h) were carried out with a 7 cm loop-coil in a 3 Tesla Siemens Magnetom TIM Trio (Germany). To derive the coordinates, Digital Imaging and Communications in Medicine (DICOM) files were transformed into Neuroimaging Informatics Technology Initiative (NIFTI) format. NIFTI-compatible images were loaded into 3D viewer software (MRIcro version 1.40 build 1), and the stereotaxic zero in the MRI image was determined using the coordinates of the earbar-tips. Coordinates for placement of the guide cannulas were calculated for every individual animal by use of MRI images and a primate brain map.
On a separate day, microdialysis guide cannulas were placed bilaterally in the head of the caudate nucleus using the same MRI compatible stereotaxic frame (Kopf Model 1430), under isoflurane anesthesia. Prior to surgery, animals were administered ketamine (i.m.), and subsequently anesthetized with isoflurane (0.8%-2% inhalation) while artificially ventilated with O2/N2O (40/60) at 60 to 80 mL tidal volume via an intratracheal tube. During surgery, subcutaneous or i.v. fluids were provided. Animals were allowed to recover from the anesthesia in a warmed environment, single housed, and given at a minimum a 14-day post-surgery recovery time. The following medications were administered to reduce pain and inflammation, as well as reduce the chance of post-operative infection: meloxicam (Metacam 5 mg/mL, 0.2 mg/kg, buprenorphine (Temgesic, 0.3 mg/mL, 0.0038 mg/kg), enrofloxacine (25 mg/mL, 5 mg/kg), and amoxicillin (150 mg/mL, 15 mg/kg).
Samples were stored in -80°C.
From monkeys only, whole blood samples (0.5 mL) were collected from the femoral vein at -1, 0, 1, 2, and 3 h relative to dosing and transferred immediately to chilled polypropylene 15 mL vials containing 2500 μL of 0.15% formic acid in acetonitrile, mixed, and placed on dry ice. After the collections samples were stored at -80°C.
Sample preparation for monkey dialysate and blood samples: Concentrations of fosmetpantotenate (D1 and D2), PA, and PPA in monkey dialysate and blood samples were determined by Brains On-Line LLC. […] For dialysate quantitation, standards and QC samples were prepared in control dialysate (0.2% BSA in aCSF: water: 0.04% ascorbic acid in aqueous 0.02 M formic acid [4.5:24:6 v/v/v]). Standards, QC samples, and dialysate (10 μL) were mixed with 6 μL 20 mM formic acid and 0.01% ascorbic acid in water containing internal standard (10 ng/mL of ^15N/^13C3-PA) and analyzed by LC-MS/MS. Blood standards and QC samples were prepared in supernatant from control monkey blood which had been treated with 5 volumes of 0.15% formic acid in acetonitrile. Endogenous levels >LLOQ were detected for PA in control quenched blood only and quantitated at 56.56 nM based on calibration standard prepared in solvent. To compensate for endogenous PA in the calibration curve control blood, PA standard curve concentrations were spiked plus endogenous levels. Sample work-up of blood involved diluting 10 μL supernatant from study blood samples, standards, and QC samples with 90 μL of 20 mM formic acid and 0.01% ascorbic acid in water, then treating with 4 μL 20 mM formic acid and 0.01% ascorbic acid in water containing internal standard (10 ng/mL of ^15N/^13C3-PA) and analyzing by LC-MS/MS.

in vivo [11] = conditions: male, Sprague-Dawley, rat, po
in vivo [12] = conditions: male, C57Bl6, mouse, po, 700 mg/kg
Protocol: as §6, §7, §8, §9, §10, §11, §12, §13

[13] = male, CD-1, mouse, in vivo
[14] = male, C57Bl6, mouse, in vivo, po, 700 mg/kg
Protocol: as §6, §7, §8, §9, §10, §11, §12, §13

[15] = Pharmacokinetics in whole blood, CD-1 mice; conditions: male, CD-1, mouse, whole blood, oral, 100 mg/kg, Conc., blood; fosmetpantotenate 100 mg/kg PO; 2 hr; individual animals
[16] = male, Sprague-Dawley, rat, in vivo
[17] = PA Concentration in Mouse Striatal Dialysate (Corrected for Dilution)
[18] = PA Concentration in Mouse Striatal Dialysate (Corrected for Dilution), Mean

Protocol for in vitro: as §4, §5

COC(=O)CCNC(=O)[C@H](O)C(C)(C)COP(=O)(N[C@@H](C)C(=O)OC)Oc1ccccc1 (single isomer, unassigned) [Compound D2]
Mean half-life [1]: 17 min | Percentage Remaining ([1]; 0 h): 100% | Percentage Remaining ([1]; 2 h): 1% | In Vitro Measured Papp [2]: 4.0 ± 1.3 10^−6 cm/s | Mean half-life [3]: <5 min | Percentage Remaining ([3]; 0 h): 100% | Percentage Remaining ([3]; 5 min): 1% | Percentage Remaining ([3]; 0.25 h): 1% | Mean half-life [4]: <5 min | Percentage Remaining ([4]; 0 h): 100% | Percentage Remaining ([4]; 0.5 h): 0% | Percentage Remaining ([4]; 1 h): 0% | Mean half-life [5]: >95 min | Percentage Remaining ([5]; 0 h): 100% | half-life (t½) in simulated gastric fluid [6]: > 600 min | Dialysate Conc [7]: < 3.36 nM

CC(C)(CO)[C@@H](O)C(=O)NCCC(=O)O [PA, pantothenate]
AUC (in vivo [8]): 3.35 µM·h | Cmax (in vivo [8]): 589 nM | AUC (in vivo [9]; 100 mg/kg): 3.4 µM·h | Cmax (in vivo [9]; 100 mg/kg): 683 nM | AUC (in vivo [9]; 300 mg/kg): 5.76 µM·h | Cmax (in vivo [9]; 300 mg/kg): 771 nM | AUC (in vivo [9]; 700 mg/kg): 10.5 µM·h | Cmax (in vivo [9]; 700 mg/kg): 1610 nM | AUC ([10]; 300 mg/kg): 2.17 µM·h | Cmax ([10]; 300 mg/kg): 1300 nM | AUC ([10]; cynomolgus, 100 mg/kg): 0.467 ± 0.152 µM·h | Cmax ([10]; cynomolgus, 100 mg/kg): 255 ± 70 nM | AUC ([10]; cynomolgus, 300 mg/kg): 9.34 µM·h | Cmax ([10]; cynomolgus, 300 mg/kg): 4270 nM | blood-brain barrier permeability classification [2]: permeable | AUC (in vivo [11]; 100 mg/kg): 8.68 µM·h | Cmax (in vivo [11]; 100 mg/kg): 1340 nM | AUC (in vivo [11]; 300 mg/kg): 32.5 µM·h | Cmax (in vivo [11]; 300 mg/kg): 4750 nM | AUC (in vivo [11]; 700 mg/kg): 40.1 µM·h | Cmax (in vivo [11]; 700 mg/kg): 7900 nM | AUC (in vivo [12]): 0.154 ± 0.105 µM·h | Cmax (in vivo [12]; PA Cmax): 88 ± 74.3 nM | concentration at 0 h (in vivo [12]; [17]): 52.8 nM | concentration at 0.5 h (in vivo [12]; [17]): 65.1 nM | concentration at 1 h (in vivo [12]; [17]): 77.7 nM | concentration at 0 h (in vivo [12]; [18]): 50.7 nM | concentration at 0.5 h (in vivo [12]; [18]): 57.7 nM | concentration at 1 h (in vivo [12]; [18]): 75.6 nM | concentration at 3.5 h (in vivo [12]; [18]): 115 nM | concentration at 4 h (in vivo [12]; [18]): 128 nM | Cmax (in vivo [12]; total PA Cmax): 130 nM | fold increase in AUC as dose increased from 100 to 700 mg/kg [13]: 3.1 fold | fold increase in Cmax as dose increased from 100 to 700 mg/kg [13]: 2.4 fold | PA Concentration in Mouse Striatal Dialysate (Corrected for Dilution), Mean ([14]; 1.5 h): 61.5 nM | PA Concentration in Mouse Striatal Dialysate (Corrected for Dilution), Mean ([14]; 2 h): 80.7 nM | PA Concentration in Mouse Striatal Dialysate (Corrected for Dilution), Mean ([14]; 2.5 h): 87.6 nM | PA Concentration in Mouse Striatal Dialysate (Corrected for Dilution), Mean ([14]; 3 h): 95.3 nM | concentration at 2 h [15]: 282 nM | Papp at 1 h (in vitro; pH 7.4, In Vitro Measured Papp): 4.2 ± 1.3 ×10⁻⁶ cm/s | Papp at 60 min (in vitro; pig, pH 7.4, Papp): 5.6 ×10⁻⁶ cm/s | fold increase in AUC as dose increased from 100 to 700 mg/kg [16]: 4.6 fold | fold increase in Cmax as dose increased from 100 to 700 mg/kg [16]: 5.9 fold

Source: PMC5844530, “Fosmetpantotenate (RE-024), a phosphopantothenate replacement therapy for pantothenate kinase-associated neurodegeneration: Mechanism of action and efficacy in nonclinical models” (PLoS ONE, 2018)
